Results: patent US20220088031A1, “METHODS AND COMPOSITIONS FOR TREATING RESISTANT AND RECURRENT FORMS OF CANCER” (Health Research, Inc., priority 2019, published 2022)
Entries after “also recorded” stand apart in the source; their conditions may differ.

What was measured:
Assay type in all cases: cell-based, human
E006AA cells [1] = assay: Immunoblot analysis of CC, cleaved PARP and cleaved caspase-3 in whole cell lysates; conditions: for CC expression: combined treatment with DOC (10 nM, 24 hrs), c-Myc I 75 μM, NF-κB I 50 μM, AKT Act 5 μM
Experimental: (§1) Immunoblotting: Immunoblotting was performed as described previously. Protein lysates were prepared using a lysis in NP-40 buffer (50 mM Tris-HCl pH 7.4, 150 mM NaCl, 1 mM EDTA, 1 mM EGTA, 1% NP-40) supplemented with protease and phosphatase inhibitor cocktail. Protein content was quantified using a micro BCA protein estimation kit (Thermo Scientific, Waltham, Mass.; Cat #23235). Protein samples were resolved on 4-20% Criterion gels, transferred on nitrocellulose membranes (BioRad, Hercules, Calif.) and subjected to immunoblotting. Membranes were blocked in 5% fat free dry milk (Blotto, Santa Cruz, Dallas, Tex.; Cat #sc-2324) prepared in PBS-T (Tween-20) and incubated overnight in primary antibodies (1:1000 dilution) at 4° C. with continuous shaking. After washing with PBS-T, membranes were incubated in HRP conjugated anti-mouse or anti-rabbit secondary antibody at room temperature for 1 hr. After washing with PBS-T, proteins were detected using Clarity chemiluminescent reagent (BioRad, Hercules, Calif.; Cat #1705061) and X-Ray films (ASI, Fort Lauderdale, Fla.; Cat #XR1570). Membranes were stripped using stripping buffer and probed with HRP conjugated beta-actin antibody to ensure equal loading of proteins.

[2] = system: Nrf1 nuclear translocation in E006AA cells; assay: Immunoblot analysis of Nrf1 in cytosolic and nuclear fractions
Experimental: as §1, with “Subcellular fractionation for the preparation of cytosolic and nuclear fractions: Cells were seeded on 10 cm cell culture plates for treatment. Cells were harvested via gently scraping. Cells were collected using centrifugation and washed twice with ice cold PBS. Cells were resuspended in cytosolic buffer (10 mM HEPES, pH 7.4; 10 mM KCl; 0.1 mM EDTA; 0.1 mM EGTA) supplemented with freshly added 1× protease inhibitor cocktail and 1 mM DTT. Cells were incubated in cytosolic buffer for 15 min in ice and 10% NP40 was added (12.4 μl 10% NP40 per 200 μl volume of cytosolic buffer) followed by vigorous vortexing for 45 sec. Cell homogenates were centrifuged at 14000 rpm for 2 min. The supernatant was collected in new tubes and stored as the cytosolic fraction. The nuclear pellet was washed 3 times with cytosolic buffer and lysed in nuclear lysis buffer (10 mM HEPES, 500 mM NaCl, 1 mM EDTA, 1 mM EGTA, 1% NP40) to prepare nuclear extract. Immunoblotting:” for “Immunoblotting:”

[3] = system: p-Drp1^S616 in E006AA cells; assay: Immunoblot analysis of p-Drp1^S616 and Drp1; conditions: AA PCa cells; c-Myc I 75 μM, NF-κB I 50 μM, AKT Act 5 μM
Experimental: as §1

E006AA cells [4] = assay: Clonogenic assay
Experimental: Clonogenic assay: PCa cells were seeded in each well of 6 well cell culture plates. Cells were treated and plates were incubated in a CO2 cell culture incubator for 6 more days. Colonies were fixed in 10% formalin first and stained with 0.5% crystal violet solution. Plates were dried and pictures were captured using a Gel documentation system and Coomassie blue filter (Bio Rad, Hercules, Calif.).

E006AA cells [5] = assay: Immunoblot analysis of CC in cytosolic and mitochondrial fractions; conditions: in combination with DOC (24 hrs)
Experimental: Subcellular fractionation for the preparation of cytosolic and mitochondrial fractions: Cells were seeded on 15 cm cell culture plates followed by treatment with various compounds for the preparation of cytosolic and mitochondrial fractions as described. Cells were harvested via gentle scraping, washed twice with ice cold 1×PBS, and resuspended in homogenization buffer (20 mM HEPES, pH 7.4; 10 mM KCl; 1.5 mM MgCl2; 1 mM EDTA; 1 mM EGTA; 250 mM sucrose) supplemented with freshly added 1× protease inhibitor cocktail and 1 mM DTT. Cells were incubated in homogenization buffer for 30 min in ice and homogenized using a dounce homogenizer (˜25 strokes using pestle A). Cell homogenates were pre-cleared of unbroken cells and debris using centrifugation at 1000 g for 10 min. The supernatant was collected in new tubes and centrifuged at 12000 rpm for 20 min to obtain a mitochondrial pellet, which was washed 3 times with homogenization buffer and lysed in NP40 buffer, and stored as the mitochondrial fraction. The supernatant was ultra-centrifuged to obtain purified cytosol.
as §1

E006AA cells [6] = assay: Caspase-3 (DEVDase) activity assay
Experimental: Caspase-3 (DEVDase) activity assay: PCa cell lysates prepared in NP40 lysis buffer were incubated with DEVD-AFC (caspase-3 substrate) at 37° C. for 90 min in caspase activity assay buffer (50 mM HEPES pH 7.4, 150 mM NaCl, 1% CHAPS, 1 mM EDTA, 1 mM DTT, 50% glycerol). Fluorescence intensity was detected using a Synergy microplate reader at excitation and emission wavelengths of 400 nm and 508 nm, respectively. Arbitrary fluorescence units were normalized with protein content of cell lysates and represented as fold change compared to control groups.

E006AA cells [7] = assay: Seahorse XF bioenergetics assay, glycolytic reserve capacity; conditions: for glycolytic reserve capacity: in the presence of DOC, compared to control or DOC alone
Experimental: Seahorse XF bioenergetics assay: Basal glycolytic reserve capacity in PC-3, DU145, and […] PCa cells was assessed using an Agilent seahorse XF glycolytic stress test kit (Agilent Technologies Inc., Wilmington, Del.) and a Seahorse XF96 analyzer (Agilent Technologies Inc., Wilmington, Del.) analyzer as described. ATP production in […] cells after treatment with drug combinations was assessed using a Mito Stress test kit (Agilent Technologies Inc., Wilmington, Del.).

[8] = combined treatment with DOC (24 hrs)

Compound	PARP cleavage (E006AA cells [1]; agent alone)	CC expression (E006AA cells [1])	PARP cleavage (E006AA cells [1]; [8])	translocation of Nrf1 to nucleus ([2]; agent alone)	translocation of Nrf1 to nucleus ([2]; combined with DOC (24 hrs))	levels of p-Drp1^S616 [3]	colony forming ability (CFA) (E006AA cells [4]; with DOC)	colony forming ability (CFA) (E006AA cells [4]; without DOC)	CC release (E006AA cells [5])	caspase-3 activation (E006AA cells [6]; agent alone)	caspase-3 activation (E006AA cells [6]; [8])	glycolytic reserve capacity (E006AA cells [7])	glycolytic reserve (E006AA cells [7]; agent alone)
Cc1ccc(NCCCc2ccccc2)c(N)c1 [NF-κB inhibitor, JSH-23]	only a modest increase	Increased CC expression	PARP cleavage	Enhanced translocation of Nrf1 to nucleus	Enhanced translocation of Nrf1 to nucleus	increased the levels of p-Drp1^S616	reduced the CFA	reduced the CFA	resulted in CC release	only a modest increase	increased caspase-3 activation	inhibited glycolytic reserve capacity	–
CCc1ccc(/C=C2/SC(=S)NC2=O)cc1 [c-Myc inhibitor, 10058-F4]	only a modest increase	Increased CC expression	PARP cleavage	Enhanced translocation of Nrf1 to nucleus	Enhanced translocation of Nrf1 to nucleus	increased the levels of p-Drp1^S616	reduced the CFA	reduced the CFA	CC release only in combination treatment; also recorded: resulted in CC release	only a modest increase	increased caspase-3 activation	inhibited glycolytic reserve capacity	–
bisperoxovanadium 5-hydroxipyridine [AKT activator]	only a modest increase	Increased CC expression	PARP cleavage	Enhanced translocation of Nrf1 to nucleus	Enhanced translocation of Nrf1 to nucleus	increased the levels of p-Drp1^S616	reduced the CFA	reduced the CFA	CC release only in combination treatment; also recorded: resulted in CC release	only a modest increase	increased caspase-3 activation	inhibited glycolytic reserve capacity	inhibited glycolytic reserve
